Key:
Assay in all cases: relative viability (nuclei count vs DMSO), 5 days (fraction); higher = more cells survive
MK-2206 + Tozasertib = compound: NC1(c2ccc(-c3nc4ccn5c(=O)[nH]nc5c4cc3-c3ccccc3)cc2)CCC1 [MK-2206] + Cc1cc(Nc2cc(N3CCN(C)CC3)nc(Sc3ccc(NC(=O)C4CC4)cc3)n2)n[nH]1 [Tozasertib] (partner 0.1 µM)
How it was run: (§1)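 One day after seeding in 1536-well plates, lung cancer cell lines were dosed by pin tool. Dosing was either single-drug or a fixed anchor-drug dose plus five library-drug doses (not always all listed) in √10 steps. After 5 days, nuclei were stained in one fix-and-stain step and counted on 4× images, and relative viability is the nuclei count of treated wells over that of vehicle wells, given as the median of duplicate plates.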

MK-2206 + Crizotinib = compound: NC1(c2ccc(-c3nc4ccn5c(=O)[nH]nc5c4cc3-c3ccccc3)cc2)CCC1 [MK-2206] + C[C@@H](Oc1cc(-c2cnn(C3CCNCC3)c2)cnc1N)c1c(Cl)ccc(F)c1Cl [Crizotinib] (partner 1 µM)
How it was run: as §1

Pictilisib + AZD7762 = compound: CS(=O)(=O)N1CCN(Cc2cc3nc(-c4cccc5[nH]ncc45)nc(N4CCOCC4)c3s2)CC1 [Pictilisib] + NC(=O)Nc1cc(-c2cccc(F)c2)sc1C(=O)N[C@H]1CCCNC1 [AZD7762] (partner 0.2 µM)
How it was run: as §1

Pictilisib + Vorinostat = compound: CS(=O)(=O)N1CCN(Cc2cc3nc(-c4cccc5[nH]ncc45)nc(N4CCOCC4)c3s2)CC1 [Pictilisib] + O=C(CCCCCCC(=O)Nc1ccccc1)NO [Vorinostat] (partner 1 µM)
How it was run: as §1

Pictilisib + Alpelisib = compound: CS(=O)(=O)N1CCN(Cc2cc3nc(-c4cccc5[nH]ncc45)nc(N4CCOCC4)c3s2)CC1 [Pictilisib] + Cc1nc(NC(=O)N2CCC[C@H]2C(N)=O)sc1-c1ccnc(C(C)(C)C(F)(F)F)c1 [Alpelisib] (partner 2 µM)
How it was run: as §1

Row | Cell Line | relative viability (MK-2206 + Tozasertib; first compound 0.01 µM) | relative viability (MK-2206 + Tozasertib; first compound 0.03162 µM) | relative viability (MK-2206 + Tozasertib; first compound 0.3162 µM) | relative viability (MK-2206 + Tozasertib; first compound 1 µM) | relative viability (MK-2206 + Crizotinib; first compound 0.01 µM) | relative viability (MK-2206 + Crizotinib; first compound 0.03162 µM) | relative viability (MK-2206 + Crizotinib; first compound 0.3162 µM) | relative viability (MK-2206 + Crizotinib; first compound 1 µM) | relative viability (Pictilisib + AZD7762; first compound 0.02 µM) | relative viability (Pictilisib + AZD7762; first compound 0.06325 µM) | relative viability (Pictilisib + AZD7762; first compound 0.6325 µM) | relative viability (Pictilisib + AZD7762; first compound 2 µM) | relative viability (Pictilisib + Vorinostat; first compound 0.02 µM) | relative viability (Pictilisib + Vorinostat; first compound 0.06325 µM) | relative viability (Pictilisib + Vorinostat; first compound 0.6325 µM) | relative viability (Pictilisib + Vorinostat; first compound 2 µM) | relative viability (Pictilisib + Alpelisib; first compound 0.02 µM) | relative viability (Pictilisib + Alpelisib; first compound 0.06325 µM) | relative viability (Pictilisib + Alpelisib; first compound 0.6325 µM) | relative viability (Pictilisib + Alpelisib; first compound 2 µM)
1 | ChaGo-K-1 | 0.236 | 0.268 | 0.2 | 0.228 | 1.08 | 1.11 | 0.961 | 1.14 | 0.858 | 0.913 | 0.864 | 0.784 | 0.797 | 0.773 | 0.64 | 0.609 | – | – | – | –
2 | EBC-1 | – | – | – | – | 0.189 | 0.205 | 0.198 | 0.172 | – | – | – | – | – | – | – | – | 0.904 | 0.836 | 0.67 | 0.295
3 | EKVX | 0.405 | 0.395 | 0.344 | 0.329 | 0.897 | 1.1 | 0.858 | 0.868 | 0.732 | 0.703 | 0.41 | 0.315 | 0.734 | 0.538 | 0.56 | 0.254 | 0.913 | 0.882 | 0.761 | 0.339
4 | EMC-BAC-2 | 0.333 | 0.298 | 0.271 | 0.261 | 0.714 | 0.729 | 0.781 | 0.745 | 1.16 | 1.12 | 0.798 | 0.631 | 0.88 | 0.615 | 0.337 | 0.286 | 0.754 | 0.766 | 0.721 | 0.577
5 | EPLC-272H | 0.292 | 0.378 | 0.344 | 0.246 | 0.951 | 0.928 | – | 1.01 | 0.25 | 0.279 | 0.173 | 0.14 | 0.477 | 0.403 | 0.449 | 0.23 | 1.06 | 0.877 | 0.826 | 0.738
6 | H3255 | 0.773 | 0.663 | 0.511 | 0.703 | 0.833 | 0.913 | 0.729 | 0.616 | 0.814 | 0.8 | 0.832 | 0.578 | 0.813 | 0.779 | 0.788 | 0.414 | 0.684 | 0.601 | 0.601 | 0.523
7 | HARA | 0.0977 | 0.106 | 0.267 | 0.094 | 1.11 | 1.08 | 0.986 | 0.979 | 0.246 | 0.357 | 0.302 | 0.245 | 0.712 | 0.35 | 0.299 | 0.239 | 0.766 | 0.888 | 0.768 | 0.494
8 | HCC-15 | 0.397 | 0.394 | 0.28 | 0.235 | 0.824 | 0.823 | 0.868 | 0.769 | 1.23 | 1.25 | 0.989 | 0.78 | 0.841 | 0.818 | 0.707 | 0.535 | 0.829 | 0.926 | 0.829 | 0.714
9 | HCC-44 | 0.993 | 1.1 | 1.03 | 0.98 | 0.826 | 0.787 | 0.756 | 0.818 | 0.978 | 0.994 | 1.05 | 1.22 | 1.19 | 1.14 | 1.17 | 0.783 | 0.893 | 0.79 | 0.674 | 0.412

From the supplement of paper PMC10307832
